Test results published in the supplement of paper PMC10307832.

What was measured:
Experiment in all cases: relative viability (nuclei count vs DMSO), 5 days (fraction); higher = more cells survive
GW-2580 + Foretinib = compound: COC1=CC=C(C=C1)COC2=C(C=C(C=C2)CC3=CN=C(N=C3N)N)OC [GW-2580] + COc1cc2c(Oc3ccc(NC(=O)C4(C(=O)Nc5ccc(F)cc5)CC4)cc3F)ccnc2cc1OCCCN1CCOCC1 [Foretinib] (partner 0.25 µM)
Outline: (§1)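 Each reported value is a median over duplicate plates. It expresses relative viability: treated-well nuclei count divided by vehicle-well nuclei count. Lung cancer cell lines in 1536-well plates were dosed by pin tool a day after seeding, alone with one drug or with a fixed anchor-drug dose plus five library-drug doses (not always all listed) in √10 steps, and nuclei were counted after 5 days.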

GW-2580 + Pictilisib = compound: COC1=CC=C(C=C1)COC2=C(C=C(C=C2)CC3=CN=C(N=C3N)N)OC [GW-2580] + CS(=O)(=O)N1CCN(Cc2cc3nc(-c4cccc5[nH]ncc45)nc(N4CCOCC4)c3s2)CC1 [Pictilisib] (partner 1 µM)
Outline: as §1

GW-2580 + Vorinostat = compound: COC1=CC=C(C=C1)COC2=C(C=C(C=C2)CC3=CN=C(N=C3N)N)OC [GW-2580] + O=C(CCCCCCC(=O)Nc1ccccc1)NO [Vorinostat] (partner 1 µM)
Outline: as §1

Fedratinib + Trametinib = compound: Cc1cnc(Nc2ccc(OCCN3CCCC3)cc2)nc1Nc1cccc(S(=O)(=O)NC(C)(C)C)c1 [Fedratinib] + CC(=O)Nc1cccc(-n2c(=O)n(C3CC3)c(=O)c3c(Nc4ccc(I)cc4F)n(C)c(=O)c(C)c32)c1 [Trametinib] (partner 0.02 µM)
Outline: as §1

Fedratinib + AZD7762 = compound: Cc1cnc(Nc2ccc(OCCN3CCCC3)cc2)nc1Nc1cccc(S(=O)(=O)NC(C)(C)C)c1 [Fedratinib] + NC(=O)Nc1cc(-c2cccc(F)c2)sc1C(=O)N[C@H]1CCCNC1 [AZD7762] (partner 0.2 µM)
Outline: as §1

Cell Line	relative viability (GW-2580 + Foretinib; first compound 0.08 µM)	relative viability (GW-2580 + Foretinib; first compound 0.8 µM)	relative viability (GW-2580 + Foretinib; first compound 2.53 µM)	relative viability (GW-2580 + Foretinib; first compound 8 µM)	relative viability (GW-2580 + Pictilisib; first compound 0.08 µM)	relative viability (GW-2580 + Pictilisib; first compound 0.8 µM)	relative viability (GW-2580 + Pictilisib; first compound 2.53 µM)	relative viability (GW-2580 + Pictilisib; first compound 8 µM)	relative viability (GW-2580 + Vorinostat; first compound 0.08 µM)	relative viability (GW-2580 + Vorinostat; first compound 0.8 µM)	relative viability (GW-2580 + Vorinostat; first compound 2.53 µM)	relative viability (GW-2580 + Vorinostat; first compound 8 µM)	relative viability (Fedratinib + Trametinib; first compound 0.1 µM)	relative viability (Fedratinib + Trametinib; first compound 0.3162 µM)	relative viability (Fedratinib + Trametinib; first compound 1 µM)	relative viability (Fedratinib + AZD7762; first compound 0.1 µM)	relative viability (Fedratinib + AZD7762; first compound 0.3162 µM)	relative viability (Fedratinib + AZD7762; first compound 1 µM)
NCI-H1437	1.38	1.28	1.14	0.91	0.465	0.514	0.378	0.387	0.923	0.918	0.674	0.534	0.492	0.561	0.564	1.13	1.13	1.09
NCI-H1651	0.958	0.804	0.754	0.745	0.65	0.707	0.597	0.599	0.516	0.636	0.534	0.555	0.778	0.826	0.859	0.502	0.404	0.435
NCI-H1666	0.928	0.936	0.948	0.991	0.55	0.653	0.316	0.573	1.08	1.16	0.94	0.967	1	0.824	0.861	0.751	0.836	0.807
NCI-H1734	0.894	0.855	0.783	0.717	0.491	0.478	0.431	0.436	0.871	0.802	0.725	0.775	0.605	0.583	0.636	0.709	0.512	0.515
NCI-H1755	1.02	0.967	0.907	0.679	0.489	0.461	0.321	0.372	1.03	0.77	0.7	0.748	0.822	0.696	0.73	0.422	0.47	0.43
NCI-H1793	0.694	0.758	0.584	0.58	0.312	0.33	0.216	0.254	0.755	0.88	0.566	0.718	0.493	0.399	0.416	0.324	0.402	0.326
NCI-H1915	1.26	0.768	1.12	1.06	0.986	0.906	0.954	0.886	0.559	0.583	0.442	0.508	0.307	0.28	0.275	0.754	0.66	0.67
NCI-H1944	0.945	0.886	0.966	0.631	0.35	0.324	0.343	0.278	0.551	0.53	0.513	0.52	0.448	0.422	0.42	0.475	0.594	0.458
NCI-H1975	0.965	1.03	0.939	0.803	0.294	0.325	0.29	0.29	0.755	0.75	0.654	0.647	0.344	0.234	0.304	0.562	0.676	0.566
NCI-H1993	0.921	0.765	0.686	0.746	0.827	0.804	–	0.655	0.993	0.887	0.661	0.868	0.547	0.419	0.421	0.816	0.694	0.688
NCI-H2085	1	0.895	1.08	0.758	0.498	0.386	0.461	0.494	0.786	0.856	0.735	0.821	0.598	0.512	0.458	0.952	0.925	0.928
NCI-H2087	1.21	1.25	1.2	0.937	1.04	1.03	0.61	0.767	0.802	0.807	0.696	0.715	0.203	0.177	0.213	1.39	1.37	1.42
NCI-H2126	1.32	1.13	0.925	1.28	0.483	0.497	0.448	0.452	0.817	0.794	0.749	0.814	0.493	0.582	0.541	1.06	1.01	1.01
NCI-H2170	1.05	0.957	0.958	1.04	0.316	0.353	0.304	0.287	0.932	0.903	0.64	0.775	0.931	0.887	0.847	0.77	0.821	0.644
NCI-H2347	0.739	0.885	0.586	1.17	0.662	0.992	0.592	0.717	0.619	0.621	0.549	0.575	0.252	0.27	0.27	0.757	0.645	0.857
NCI-H2405	1.04	1.08	0.963	0.958	0.432	0.505	0.319	0.529	1.05	1.19	0.9	0.785	0.582	0.584	0.57	0.7	0.764	0.528
NCI-H3122	1.07	0.991	0.982	0.961	0.586	0.611	0.584	0.576	1.08	1.06	1.06	1.13	0.242	0.205	0.193	1.07	1.02	0.912
